Test results: patent US20230405144A1, “INDUCIBLE CELL DEATH SYSTEMS” (priority 2020, published 2023)

How the values were obtained:
Assay type in all cases: cell-based
HEK293T cells [1] = test: Screening pro-apoptotic toxins: Incucyte confluency over 11 days
Description: (§1) Cell engineering and assessment: 5,000 HEK293T cells were plated in a 96-well flat bottom TC treated plate. Cells were transduced same day with 5,000 pg of specified constructs (based on p24 titer). Plates were transferred to the Incucyte where images of the cell layer were captured at 4 images per well every 2 hours over the course of 11 days with 10× objective. Confluency was calculated using the Incucyte basic pipeline software to map phase overlay. Cells were split down to 5,000 cells per well on day 4.
Cells were then lentivirally transduced to express the indicated cell-death inducing toxin.

[2] = tested on: HEK293T cell line TL06776 (SB04397); test: ACP repression of toxins: Incucyte confluency over 7 days; conditions: BAX expressed in HEK293T cells that do not express the ACP
Description: as §1, with “Plate” for “Plates were”, “7” for “11”, “overlay in each well.” for “overlay. Cells were split down to 5,000 cells per well on day 4.”
Stable cell lines were generated to express an ACP including a transcriptional repressor. Cells were then lentivirally transduced to express the cell-death inducing toxin BAX or iCasp-9 under control of an ACP responsive promoter. The ACP transcriptional repressor includes a degron that in response to addition of an IMiD promotes ubiquitin pathway-mediated degradation of the peptides. Upon IMiD addition, degradation of the repressor leads to expression of the cell-death inducing peptide (see System 3; degron-tagged transcriptional repressor), as described in Example 1. […]
The cell line TL06776 was assessed following expression of degron domain-ZF-minKrab (SB04397) and percent confluency was quantified from pictures taken every 2 hours over course of 7 days in triplicate. […] Viability was further assessed as the ratio of confluency of a given sample relative to the confluency of non-transduced samples.

HEK293T cells [3] = test: Mifepristone-induced dimerization of iCasp9: annexin V / Sytox Red staining by flow cytometry; conditions: cells transduced with SB03080, 10 uM Mifepristone, 24 hours
Description: Cell engineering and assessment: 24 hours before transduction 50,000 HEK293T cells were plated on a 24-well dish. Next day, cells were transduced with 50,000 pg of SB03080 (Progesterone receptor domain-Gly-Ser linker-iCasp9-IRES-red fluorescent protein) (based on p24 titer). Transduced cells were split into drug free media or media with 10 uM of Mifepristone 48 hours after transduction. 24 hours later, samples were stained for annexin V, a marker of apoptosis, and Sytox Red a live/dead stain and quantified by flow cytometry.
Cells were lentivirally transduced to express the toxin Caspase-9 with an IRES-red fluorescent protein (mKate) expressed under control of an SFFV promoter. The Caspase-9 protein includes a progesterone receptor domain. Upon Mifepristone addition, monomers of pro-apoptotic Caspase-9 oligomerize through binding of the progesterone receptor domain to Mifepristone (see FIG. 3A and System 1; chemical inducer of dimerization that activates the pro-cell death-inducing protein), as described in Example 1.

Molecule: Bax: cell-death inducing toxin expressed from constructs SB05403 / SB05406
- decline in viability of a heterogeneous population (HEK293T cells [1]): ≤ 70%
- decline in viability [2]: 70%

Molecule: CC#C[C@]1(O)CC[C@H]2[C@@H]3CCC4=CC(=O)CCC4=C3[C@@H](c3ccc(N(C)C)cc3)C[C@@]21C [Mifepristone]
- cell death (both apoptotic and by live/dead) (HEK293T cells [3]): increased cell death

B1: Smac/Diablo: cell-death inducing toxin expressed from constructs SB05405 / SB05408 (protein)
chain: MAALKSWLSRSVTSFFRYRQCLCVPVVANFKKRCFSELIRPWHKTVTIGFGVTLCAVPIAQKSEPHSLSSEALMRRAVSLVTDSTSTFLSQTTYALIEAITEYTKAVYTLTSLYRQYTSLLGKMNSEEEDEVWQVIIGARAEMTSKHQEYLKLETTWMTAVGLSEMAAEAAYQTGADQASITARNHIQLVKLQVEEVHQLSRKAETKLAEAQIEELRQKTQEEGEERAESEQEAYLRED
modifications: Description of Unknown: Smac/DIABLO sequence
notes: cell-death inducing toxin expressed from constructs SB05405 / SB05408
- decline in viability of a heterogeneous population (HEK293T cells [1]): did not
